Data reported in patent publication US12171768B2, “IRAK4 degraders and uses thereof” (priority 2021, dated 2024).
Like-named read-outs stand apart in the source and are kept apart here.

How the values were obtained:
[1] = biological target: T1, IRAK4 (Canis lupus familiaris, UniProt A0A8I3S726); assay: In vitro IRAK4 degradation in dog PBMCs; assay type: cell-based; settings: read-out: DC50, IRAK4 degradation
T1 construct: endogenous in cells; host or cells: dog PBMCs (A3); PBMCs and skin of dosed dogs (A12)
T1 sequence (A0A8I3S726 1-460): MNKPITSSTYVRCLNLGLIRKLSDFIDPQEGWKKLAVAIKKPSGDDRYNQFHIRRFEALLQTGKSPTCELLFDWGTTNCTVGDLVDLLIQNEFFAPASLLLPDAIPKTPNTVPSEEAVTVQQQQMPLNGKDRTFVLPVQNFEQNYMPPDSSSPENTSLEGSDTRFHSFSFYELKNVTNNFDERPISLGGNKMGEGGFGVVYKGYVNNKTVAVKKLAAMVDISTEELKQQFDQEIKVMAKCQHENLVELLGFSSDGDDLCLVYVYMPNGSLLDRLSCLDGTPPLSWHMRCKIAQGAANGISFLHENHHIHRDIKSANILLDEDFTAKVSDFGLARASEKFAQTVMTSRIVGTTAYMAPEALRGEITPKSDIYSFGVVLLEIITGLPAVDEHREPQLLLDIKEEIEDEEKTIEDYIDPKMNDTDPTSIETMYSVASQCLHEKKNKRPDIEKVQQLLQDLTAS

[2] = system: TLR agonist (lipopolysaccharide and R848) and IL-1β-induced proinflammatory cytokine production; assay: In vitro cytokine release assays in PBMCs; assay type: cell-based; settings: LPS
[3] = In vivo pharmacokinetic studies in rats, dogs and monkeys
[4] = Phase 1 SAD plasma pharmacokinetics; assay type: in vivo, human; settings: for Tmax: healthy volunteers
Text: Initially, a dose range of Compound A in single ascending dose (SAD) escalation cohorts will be explored in adult HVs (Part A). […] Safety and PK data from at least 3 completed SAD cohorts will determine initiation of and appropriate doses for the 14-day multiple ascending dose (MAD) portion of the study (Part B).
The graphical assessment of dose proportionality will be performed for AUC and Cmax. Relative bioavailability of food effect will be assessed based on AUC and Cmax.

[5] = Phase 1 MAD plasma pharmacokinetics; assay type: in vivo, human; settings: for Cmax at 14 days / concentration at 24 h / Tmax at 14 days: human, plasma, oral, steady-state (Day 14); for Cmax at 14 days / concentration at 24 h: geometric mean (% CV); for concentration at 24 h: read-out: Ctrough; for Tmax at 14 days: median (range)
Text: The selection of Compound A doses will be guided by the safety, tolerability, and PK data in humans from the SAD portion of the study. […] Increasing dose levels in subsequent MAD cohorts will be identified based on the safety and PK observed in the previous SAD and MAD cohorts. Dose escalation between each MAD cohort will not exceed 100%.
However, the dosing interval and the duration of dosing may change following review of the safety, PK, and PD data from Part A. […]

[6] = Phase 1 MAD safety and tolerability; assay type: in vivo, human; settings: multiple daily doses over 14 days up to 200 mg (MAD 4)
Text: Part B: Part B is a double-blind, randomized, placebo-controlled, MAD, sequential group study in 48 adult HVs, divided in 4 cohorts of 12 adult HVs in each cohort. One or more additional cohorts may be added, as needed.
All data will be fully listed.

Q: Which DC50 [1] does the source give for Cn1c(=O)n([C@@H]2CCC(=O)NC2=O)c2cccc(C#CCOC3CCN(C[C@H]4CC[C@H](n5cc(NC(=O)c6cnn7ccc(N8C[C@H]9C[C@@H]8CO9)nc67)c(C(F)F)n5)CC4)CC3)c21 [Compound A, 5-((1R,4R)-2-oxa-5-azabicyclo[2.2.1]heptan-5-yl)-N-(3-(difluoromethyl)-1-((1r,4R)-4-((4-((3-(1-(2,6-dioxopiperidin-3-yl)-3-methyl-2-oxo-2,3-dihydro-1H-benzo[d]imidazol-4-yl)prop-2-yn-1-yl)oxy)piperidin-1-yl)methyl)cyclohexyl)-1H-pyrazol-4-yl)pyrazolo[1,5-a]pyrimidine-3-carboxamide] here?
A: The DC50 was less than 10 nM.

Q: What about the “IC50, inhibition of proinflammatory cytokine production (IL-6, TNF-α, GM-CSF, IL-8)” value [2] of the same compound?
A: The value was “low nM range”.

Q: And the Bioavailability [3]?
A: Its Bioavailability is “low to moderate”.

Q: And the Clearance [3]?
A: The Clearance was “moderate to high”.

Q: And the Terminal half-life [3]?
A: Its Terminal half-life is “moderate”.

Q: And the “Volume of distribution at steady state” value [3]?
A: The value was “high”.

Q: What about the Dose-dependent plasma exposures ([4]; SAD) of the same compound?
A: Its Dose-dependent plasma exposures is “plateaued after 1000 mg”.

Q: And the half-life ([4]; human, plasma, oral, after single dosing, across SAD cohorts)?
A: Its half-life is 25 to 40 h.

Q: What about the Tmax ([4]; human, plasma, SAD 1, single oral dose 25 mg) of the same compound?
A: Its Tmax is 8 h.

Q: And the Tmax ([4]; human, plasma, SAD 2, single oral dose 75 mg)?
A: The Tmax was 7 h.

Q: And the Tmax ([4]; human, plasma, SAD 3, single oral dose 150 mg)?
A: Its Tmax is 9 h.

Q: What about the Tmax ([4]; human, plasma, SAD 4, single oral dose 300 mg) of the same compound?
A: The Tmax was 8 h.

Q: What about the Tmax ([4]; human, plasma, SAD 6, single oral dose 1000 mg) of the same compound?
A: The Tmax was 20 h.

Q: And the “Day of dosing by which steady-state was reached” value ([5]; MAD, once daily dosing)?
A: The value was no more than 7 days.

Q: And the Cmax at 14 days ([5]; 25 mg QD)?
A: Its Cmax at 14 days is 8.2 ng/mL.

Q: And the concentration at 24 h ([5]; 25 mg QD)?
A: Its concentration at 24 h is 5.03 ng/mL.

Q: And the Tmax at 14 days ([5]; 25 mg QD)?
A: Its Tmax at 14 days is 8 h.

Q: And the Cmax at 14 days ([5]; 50 mg QD)?
A: Its Cmax at 14 days is 12 ng/mL.

Q: What about the concentration at 24 h ([5]; 50 mg QD) of the same compound?
A: The concentration at 24 h was 7.28 ng/mL.

Q: And the Tmax at 14 days ([5]; 50 mg QD)?
A: Its Tmax at 14 days is 8 h.

Q: And the Cmax at 14 days ([5]; 100 mg QD)?
A: The Cmax at 14 days was 16.1 ng/mL.

Q: And the concentration at 24 h ([5]; 100 mg QD)?
A: Its concentration at 24 h is 9.81 ng/mL.

Q: What about the Tmax at 14 days ([5]; 100 mg QD) of the same compound?
A: The Tmax at 14 days was 8 h.

Q: And the Cmax at 14 days ([5]; 200 mg QD)?
A: The Cmax at 14 days was 25.2 ng/mL.

Q: And the concentration at 24 h ([5]; 200 mg QD)?
A: The concentration at 24 h was 18.8 ng/mL.

Q: What about the Tmax at 14 days ([5]; 200 mg QD) of the same compound?
A: Its Tmax at 14 days is 8 h.

Q: And the Safety and tolerability [6]?
A: Its Safety and tolerability is “safe and well-tolerated”.
